Measured values as given in PubChem BioAssay (NCI).
≈ marks a conversion by molar mass, not a printed value. Where “and” joins values, the source holds several entries; their conditions need not be identical. Equal values may be shown once.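 Five compound concentrations were applied to cells in 96-well plates for 48 hours; endpoints were derived by simple linear interpolation of the resulting dose-response curve. At the GI50, growth is halved. TGI is the concentration that stops growth completely.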

Tests used:
Assay in all cases: NCI tumour cell line growth inhibition, 48 h
KM20L2 colon = tested on: KM20L2 colon
RXF-631 renal = tested on: RXF-631 renal
M19-MEL melanoma = tested on: M19-MEL melanoma
HOP-18 NSCLC = tested on: HOP-18 NSCLC
DLD-1 colon = tested on: DLD-1 colon
LXFL 529 NSCLC = tested on: LXFL 529 NSCLC
XF 498 CNS = tested on: XF 498 CNS
SNB-78 CNS = tested on: SNB-78 CNS
MDA-N = tested on: MDA-N

Compound | TGI (KM20L2 colon) | TGI (RXF-631 renal) [µM] | TGI (M19-MEL melanoma) | TGI (HOP-18 NSCLC) [µM] | TGI (DLD-1 colon) | TGI (LXFL 529 NSCLC) | TGI (XF 498 CNS) | TGI (SNB-78 CNS) | TGI (MDA-N) | also measured
Cc1cc([N+](=O)[O-])ccc1Nc1cccc(Cl)c1C | 29.8 µM | 31.3 | 30.6 µM | 29.6 | 33.5 µM | 28.3 µM | – | – | – | –
[N-]=[N+]=NC12CC3C4CC5CC3C(C1)C(C5)C4C2 | – | > 100 | > 100 µM | > 100 | > 100 µM | > 100 µM | > 100 µM | > 100 µM | – | –
O=[N+]([O-])c1ccc(C2=Nn3cnnc3SC2)o1 | – | 28.1 | 13.8 µM | – | 41.4 µM | 26.4 µM | 30.2 µM | 51.9 µM | – | –
COc1cc(N(CCC#N)CCC#N)ccc1/C(N=Nc1ccc([N+](=O)[O-])cc1)=N/NC(=O)c1cc(Br)ccc1O | – | – | – | – | – | – | – | – | 126 µg/mL | GI50 (MDA-N): 43.8 µg/mL (≈ 70.7 µM)
COc1cccc(/C=C/c2cc(OC)c(OC)c(OC)c2)c1 | 87.7 µM | > 100 | > 100 µM | – | > 100 µM | > 100 µM | > 100 µM | > 100 µM | – | –
COC(=O)c1cc2c(s1)C(=O)c1ccccc1-2 | > 100 µM | > 100 | > 100 µM | > 100 | > 100 µM | > 100 µM | – | > 100 µM | – | –
S=C(Nc1ccccc1)N(/N=C/C=C/c1ccccc1)c1nnc(-c2ccccc2)c(-c2ccccc2)n1 | > 100 µM | > 100 | > 100 µM | – | > 100 µM | – | > 100 µM | > 100 µM | – | –
CN(C)N=Nc1ccc(NC=O)cc1 | – | – | – | – | – | – | – | – | > 100 µM | –
O=C1c2cccc(NCCCNCCO)c2C(=O)c2cccc(NCCCNCCO)c21 | 6.72 µM and 9.95 µM | – | 2.24 µM and 3.72 µM | 7.69 | 12 µM and 6.25 µM | 2.95 µM and 10.1 µM | 2.4 µM and 7.26 µM | 6.7 µM and 17.1 µM | 3.23 µM | GI50 (XF 498 CNS): 0.827 µM and 2.41 µM; GI50 (M19-MEL melanoma): 0.712 µM and 1.8 µM; GI50 (LXFL 529 NSCLC): 0.844 µM and 2.22 µM
NC(=Nc1c([N+](=O)[O-])cnc2ccccc12)N1CCOCC1 | – | – | – | – | – | – | – | – | > 100 µM | –
O=C(/C=C/c1ccccc1O)c1ccccc1O | > 100 µM | – | > 100 µM | – | > 100 µM | – | – | > 100 µM | – | –
COc1ccc2c(c1)CCCC(Br)C2=O (centres undefined) | – | – | – | – | – | – | – | – | 9.21 µM | –
NC(=O)NC1C(c2ccccc2)=C1c1ccccc1 | – | – | – | – | – | – | – | – | 34.4 µM | –
C=C(c1nc2ccc(Cl)cc2[nH]c1=O)C(O)c1ccc(C(O)C(=O)c2nc3ccc(Cl)cc3[nH]c2=O)cc1 (centres undefined) | > 100 µM | > 100 | > 100 µM | – | > 100 µM | > 100 µM | > 100 µM | > 100 µM | > 100 µM | –
CCC[CH2][Sn]1([CH2]CCC)[O]N=C(c2ccccc2)C(c2ccccc2)[O]1 (centres undefined) | 8.74 µM | – | 3.13 µM | – | 3.58 µM | 1.23 µM | – | 8.01 µM | – | GI50 (KM20L2 colon): 2.54 µM; GI50 (M19-MEL melanoma): 1.56 µM; GI50 (SNB-78 CNS): 3.07 µM; GI50 (DLD-1 colon): 1.79 µM; GI50 (LXFL 529 NSCLC): 0.316 µM
CCCCC(C(=O)C(=O)NC1C2CC3CC(C2)CC1C3)C(=O)C(C)C (centres undefined) | > 100 µM | > 100 | > 100 µM | > 100 | – | > 100 µM | > 100 µM | > 100 µM | – | –
COC(=O)C(=Cc1cc(OC)ccc1OC)C(=O)OC | – | 88.3 | 79.5 µM | – | 91.3 µM | 36 µM | 47.4 µM | > 100 µM | – | –
O=C(CCn1[nH]c(=O)c(Cl)c(Cl)c1=O)NO | > 100 µM | – | > 100 µM | > 100 | > 100 µM | > 100 µM | > 100 µM | – | – | –
C=C1C(=O)OC2CCN3CC=C(COC(=O)C(C)(O)C4(CO4)C1C)C23 (centres undefined) | – | – | – | – | – | – | – | – | > 100 µM | –

Compound | TGI (KM20L2 colon) | TGI (RXF-631 renal) [µM] | TGI (M19-MEL melanoma) | TGI (HOP-18 NSCLC) [µM] | TGI (DLD-1 colon) | TGI (LXFL 529 NSCLC) | TGI (XF 498 CNS) | TGI (SNB-78 CNS) | TGI (MDA-N) | also measured
CS(=O)(=O)Nc1ccc2c(c1)oc(=O)c1ccccc12 | – | – | – | – | – | – | – | – | > 100 µM | –
Cc1ccc(Cc2c(=O)[nH]nc3ccccc23)cc1 | > 100 µM | > 100 | > 100 µM | > 100 | > 100 µM | – | > 100 µM | > 100 µM | – | –
Cc1ccc(S(=O)(=O)N(CC(=O)O)c2ccccc2)cc1 | > 100 µM | – | > 100 µM | > 100 | > 100 µM | > 100 µM | – | – | – | –
CC(C)c1ccccc1NC(=O)CCc1n[nH]c(=S)o1 | > 100 µM | > 100 | > 100 µM | > 100 | > 89.2 µM | > 100 µM | > 100 µM | > 100 µM | – | –
CN(C)c1nc2ccccc2[nH]1 | > 100 µM | – | > 100 µM | > 100 | > 100 µM | > 100 µM | – | – | – | –
Cn1c2c(c3ccccc31)C1CCCCCCC1C1C(=O)OC(=O)C21 (centres undefined) | – | > 100 | > 100 µM | > 100 | > 100 µM | > 100 µM | 93.1 µM | > 100 µM | – | –
CCOc1ccccc1C=C1c2ccccc2C(=O)c2ccccc21 | – | – | > 100 µM | – | > 100 µM | > 100 µM | – | > 100 µM | – | –
CC1=C(C(=O)Nc2ccccc2)C(c2ccccc2)C(C(=O)Nc2ccccc2)=C(C)N1 | > 100 µM | – | > 100 µM | > 100 | > 100 µM | > 100 µM | – | > 100 µM | – | –
O/N=C/C1C(OCc2ccccc2)C(OCc2ccccc2)C(OCc2ccccc2)CN1Cc1ccccc1 (centres undefined) | – | – | – | – | – | – | – | – | 39.3 µM and > 100 µM | –
S=C1NC2(CCCCCC2)NN1c1ccccc1 | – | > 100 | – | > 100 | > 100 µM | – | – | – | > 100 µM | –
CN(C)c1ccc(C(C=C2c3ccccc3Sc3ccccc32)=C(C#N)C#N)cc1 | > 100 µM | > 100 | > 100 µM | > 100 | > 100 µM | > 100 µM | > 100 µM | > 100 µM | – | –
O=C(O)CCC(=O)c1ccc[nH]1 | – | – | – | – | – | – | – | – | > 100 µM | –
O=C(O)C1C2C=CC(O2)C1C(=O)NCc1ccccn1 (centres undefined) | – | – | – | – | – | – | – | – | > 100 µM | –
O=S1(=O)C[C@H](O)[C@H](O)CS1 | > 100 µM | – | > 100 µM | > 100 | > 100 µM | > 100 µM | > 100 µM | > 100 µM | – | –
Cc1ccc(NC(=O)C(=O)C(C(=O)c2ccc3ccccc3c2)C2OC(=O)c3ccccc32)cc1C (centres undefined) | > 100 µM | – | 20.6 µM | 21.7 | 36.7 µM | 22 µM | 18.2 µM | – | – | –
COc1ccc(C(=O)C(c2ccc(OC)cc2)C2(O)C(=O)Nc3ccc([N+](=O)[O-])cc32)cc1 (centres undefined) | > 100 µM | – | > 100 µM | – | > 100 µM | > 100 µM | – | > 100 µM | – | –
C=COCCCOc1ccccc1 | > 100 µM | – | > 100 µM | > 100 | > 100 µM | > 100 µM | > 100 µM | – | – | –
Cc1cc(CC(O)c2ccc(Cl)c(Cl)c2)nc(=O)[nH]1 (centres undefined) | > 100 µM | – | > 100 µM | – | > 100 µM | 59.2 µM | 41.3 µM | > 100 µM | – | –
COC(=O)C1=C(O)c2cc(OC)c(OC)cc2C(c2ccc(OC)c(OC)c2)C1 (centres undefined) | > 100 µM | > 100 | > 100 µM | > 100 | > 100 µM | > 100 µM | > 100 µM | > 100 µM | – | –
